Measurements as given in PubChem BioAssay AID1745844 (Carcinogenic Potency Database (CPDB), 2022).

System: rodent lifetime carcinogenesis bioassay, tumor incidence TD50
Test: carcinogenic potency in animals, long-term in vivo studies, CPDB compilation (AID 1745844)
Conditions: inhaled

## C=CC=C
mouse, strain B6C3F1, males, site: liver, lesion: hepatocellular adenoma + hepatocellular carcinoma + neoplastic nodule, dosed 60 weeks, study length 60 weeks
  TD50: 541 mg/kg/day
mouse, strain B6C3F1, males, site: liver, lesion: hepatocellular adenoma + hepatocellular carcinoma + neoplastic nodule, dosed 82 weeks, study length 104 weeks
  TD50: 23.9 mg/kg/day
mouse, strain B6C3F1, males, site: liver, lesion: hepatocellular adenoma + hepatocellular carcinoma, dosed 13 weeks, study length 104 weeks
  TD50: 15.1 mg/kg/day
mouse, strain B6C3F1, males, site: liver, lesion: hepatocellular adenoma + hepatocellular carcinoma, dosed 26 weeks, study length 104 weeks
  TD50: 23.8 mg/kg/day
mouse, strain B6C3F1, males, site: liver, lesion: hepatocellular adenoma + hepatocellular carcinoma, dosed 40 weeks, study length 104 weeks
  TD50: 16.8 mg/kg/day
mouse, strain B6C3F1, males, site: liver, lesion: hepatocellular adenoma + hepatocellular carcinoma, dosed 52 weeks, study length 104 weeks
  TD50: 14.6 mg/kg/day
mouse, strain B6C3F1, males, site: liver, lesion: hepatocellular adenoma + hepatocellular carcinoma, dosed 82 weeks, study length 104 weeks
  TD50: 23.9 mg/kg/day
mouse, strain B6C3F1, males, site: liver, lesion: hepatocellular adenoma, dosed 13 weeks, study length 104 weeks
  TD50: 17.9 mg/kg/day
mouse, strain B6C3F1, males, site: liver, lesion: hepatocellular adenoma, dosed 26 weeks, study length 104 weeks
  TD50: 27.8 mg/kg/day
mouse, strain B6C3F1, males, site: liver, lesion: hepatocellular adenoma, dosed 40 weeks, study length 104 weeks
  TD50: 18 mg/kg/day
mouse, strain B6C3F1, males, site: liver, lesion: hepatocellular adenoma, dosed 52 weeks, study length 104 weeks
  TD50: 15.8 mg/kg/day
mouse, strain B6C3F1, males, site: liver, lesion: hepatocellular adenoma, dosed 82 weeks, study length 104 weeks
  TD50: 34.1 mg/kg/day
mouse, strain B6C3F1, males, site: liver, lesion: hepatocellular carcinoma, dosed 13 weeks, study length 104 weeks
  TD50: 23.4 mg/kg/day
mouse, strain B6C3F1, males, site: liver, lesion: hepatocellular carcinoma, dosed 26 weeks, study length 104 weeks
  TD50: 60 mg/kg/day
mouse, strain B6C3F1, males, site: liver, lesion: hepatocellular carcinoma, dosed 40 weeks, study length 104 weeks
  TD50: 62 mg/kg/day
mouse, strain B6C3F1, males, site: liver, lesion: hepatocellular carcinoma, dosed 52 weeks, study length 104 weeks
  TD50: 47 mg/kg/day
mouse, strain B6C3F1, males, site: liver, lesion: hepatocellular carcinoma, dosed 82 weeks, study length 104 weeks
  TD50: 34.4 mg/kg/day
mouse, strain B6C3F1, males, site: lung, lesion: alveolar/bronchiolar adenoma + alveolar/bronchiolar carcinoma + adenocarcinoma, dosed 13 weeks, study length 104 weeks
  TD50: 8.59 mg/kg/day
mouse, strain B6C3F1, males, site: lung, lesion: alveolar/bronchiolar adenoma + alveolar/bronchiolar carcinoma + adenocarcinoma, dosed 52 weeks, study length 104 weeks
  TD50: 7.17 mg/kg/day
mouse, strain B6C3F1, males, site: lung, lesion: alveolar/bronchiolar adenoma + alveolar/bronchiolar carcinoma + adenocarcinoma, dosed 82 weeks, study length 104 weeks
  TD50: 19.2 mg/kg/day
mouse, strain B6C3F1, males, site: lung, lesion: alveolar/bronchiolar adenoma + alveolar/bronchiolar carcinoma, dosed 13 weeks, study length 104 weeks
  TD50: 8.59 mg/kg/day
mouse, strain B6C3F1, males, site: lung, lesion: alveolar/bronchiolar adenoma + alveolar/bronchiolar carcinoma, dosed 26 weeks, study length 104 weeks
  TD50: 13.4 mg/kg/day
mouse, strain B6C3F1, males, site: lung, lesion: alveolar/bronchiolar adenoma + alveolar/bronchiolar carcinoma, dosed 40 weeks, study length 104 weeks
  TD50: 11 mg/kg/day
mouse, strain B6C3F1, males, site: lung, lesion: alveolar/bronchiolar adenoma + alveolar/bronchiolar carcinoma, dosed 52 weeks, study length 104 weeks
  TD50: 7.25 mg/kg/day
mouse, strain B6C3F1, males, site: lung, lesion: alveolar/bronchiolar adenoma + alveolar/bronchiolar carcinoma, dosed 60 weeks, study length 60 weeks
  TD50: 65.9 mg/kg/day
mouse, strain B6C3F1, males, site: lung, lesion: alveolar/bronchiolar adenoma + alveolar/bronchiolar carcinoma, dosed 82 weeks, study length 104 weeks
  TD50: 19.6 mg/kg/day
mouse, strain B6C3F1, males, site: lung, lesion: alveolar/bronchiolar adenoma, dosed 13 weeks, study length 104 weeks
  TD50: 17.1 mg/kg/day
mouse, strain B6C3F1, males, site: lung, lesion: alveolar/bronchiolar adenoma, dosed 26 weeks, study length 104 weeks
  TD50: 17.3 mg/kg/day
mouse, strain B6C3F1, males, site: lung, lesion: alveolar/bronchiolar adenoma, dosed 40 weeks, study length 104 weeks
  TD50: 18.1 mg/kg/day
mouse, strain B6C3F1, males, site: lung, lesion: alveolar/bronchiolar adenoma, dosed 52 weeks, study length 104 weeks
  TD50: 9.13 mg/kg/day
mouse, strain B6C3F1, males, site: lung, lesion: alveolar/bronchiolar adenoma, dosed 60 weeks, study length 60 weeks
  TD50: 96.9 mg/kg/day
mouse, strain B6C3F1, males, site: lung, lesion: alveolar/bronchiolar adenoma, dosed 82 weeks, study length 104 weeks
  TD50: 33.2 mg/kg/day
mouse, strain B6C3F1, males, site: lung, lesion: alveolar/bronchiolar carcinoma + adenocarcinoma, dosed 13 weeks, study length 104 weeks
  TD50: 14.1 mg/kg/day
mouse, strain B6C3F1, males, site: lung, lesion: alveolar/bronchiolar carcinoma + adenocarcinoma, dosed 52 weeks, study length 104 weeks
  TD50: 13 mg/kg/day
mouse, strain B6C3F1, males, site: lung, lesion: alveolar/bronchiolar carcinoma + adenocarcinoma, dosed 82 weeks, study length 104 weeks
  TD50: 32.4 mg/kg/day
mouse, strain B6C3F1, males, site: lung, lesion: alveolar/bronchiolar carcinoma, dosed 26 weeks, study length 104 weeks
  TD50: 17.8 mg/kg/day
mouse, strain B6C3F1, males, site: lung, lesion: alveolar/bronchiolar carcinoma, dosed 40 weeks, study length 104 weeks
  TD50: 16.3 mg/kg/day
mouse, strain B6C3F1, males, site: lung, lesion: alveolar/bronchiolar carcinoma, dosed 60 weeks, study length 60 weeks
  TD50: 312 mg/kg/day
mouse, strain B6C3F1, males, site: preputial gland, lesion: adenoma + carcinoma + carcinoma, bilateral, dosed 13 weeks, study length 104 weeks
  TD50: 119 mg/kg/day
mouse, strain B6C3F1, males, site: preputial gland, lesion: adenoma + carcinoma + carcinoma, bilateral, dosed 26 weeks, study length 104 weeks
  TD50: 27.1 mg/kg/day
mouse, strain B6C3F1, males, site: preputial gland, lesion: adenoma + carcinoma + carcinoma, bilateral, dosed 40 weeks, study length 104 weeks
  TD50: 351 mg/kg/day
mouse, strain B6C3F1, males, site: preputial gland, lesion: carcinoma + carcinoma, bilateral, dosed 13 weeks, study length 104 weeks
  TD50: 167 mg/kg/day
mouse, strain B6C3F1, males, site: preputial gland, lesion: carcinoma + carcinoma, bilateral, dosed 26 weeks, study length 104 weeks
  TD50: 27.1 mg/kg/day
mouse, strain B6C3F1, males, site: preputial gland, lesion: carcinoma + carcinoma, bilateral, dosed 40 weeks, study length 104 weeks
  TD50: 351 mg/kg/day
mouse, strain B6C3F1, males, site: preputial gland, lesion: carcinoma + carcinoma, bilateral, dosed 52 weeks, study length 104 weeks
  TD50: 20.1 mg/kg/day
mouse, strain B6C3F1, males, site: preputial gland, lesion: carcinoma, NOS + squamous-cell carcinoma, dosed 60 weeks, study length 60 weeks
  TD50: 403 mg/kg/day
mouse, strain B6C3F1, males, site: preputial gland, lesion: carcinoma, dosed 82 weeks, study length 104 weeks
  TD50: 384 mg/kg/day
mouse, strain B6C3F1, males, site: preputial gland, lesion: squamous-cell carcinoma, dosed 60 weeks, study length 60 weeks
  TD50: 538 mg/kg/day
mouse, strain B6C3F1, males, site: subcutaneous tissue, lesion: hemangiosarcoma, dosed 82 weeks, study length 104 weeks
  TD50: 666 mg/kg/day
rat, strain Charles River CD (Sprague-Dawley), females, site: mammary gland, lesion: benign tumor, dosed 105 weeks, study length 105 weeks
  TD50: 182 mg/kg/day
rat, strain Charles River CD (Sprague-Dawley), females, site: mammary gland, lesion: malignant tumor, dosed 105 weeks, study length 105 weeks
  TD50: 7720 mg/kg/day
rat, strain Charles River CD (Sprague-Dawley), females, site: mammary gland, lesion: several types, types named in the paper, dosed 105 weeks, study length 105 weeks
  TD50: 133 mg/kg/day
rat, strain Charles River CD (Sprague-Dawley), females, site: thyroid gland, lesion: follicular-cell adenoma, dosed 105 weeks, study length 105 weeks
  TD50: 8270 mg/kg/day
rat, strain Charles River CD (Sprague-Dawley), males, site: any site (literature study), lesion: one or several types, types not named, dosed 111 weeks, study length 111 weeks
  TD50: 1470 mg/kg/day
rat, strain Charles River CD (Sprague-Dawley), males, site: pancreas, lesion: exocrine adenoma, dosed 111 weeks, study length 111 weeks
  TD50: 9310 mg/kg/day
rat, strain Charles River CD (Sprague-Dawley), males, site: testis, lesion: Leydig-cell tumor, dosed 111 weeks, study length 111 weeks
  TD50: 7550 mg/kg/day
